Experimental data published in US20250320228A1, “PYRIDO[3,2-D]PYRIMIDINES AS HPK1 INHIBITORS” (Merck Patent GmbH, priority 2022, published 2025).
pIC50: −log10 of the molar value.

Columns and labels:
HPK1 pSLP76 (Ser376) = assay: Cellular assay phospho-SLP-76 (Ser376); format: cell-based, human; conditions: SLP76 Ser376 phosphorylation after αCD3/αCD28 stimulation; Jurkat (human) or EL-4 (mouse) cells, table does not say which; read-out: HPK1 pSLP76 IC50
In short: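 Jurkat (human) and EL-4 (mouse) cells preincubated 60 min with compound, then stimulated with αCD3/αCD28 Dynabeads at 37 °C (Jurkat 15 min; EL-4 30 min). SLP76 Ser376 phosphorylation in lysate read by AlphaLISA SureFire (Jurkat) or HTRF (EL-4, 19 h); IC50 from 10-point dilutions.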

[1] = biological target: full-length human HPK1 (MAP4K1) (Homo sapiens (Human), UniProt Q92918); assay: HPK1 kinase assay (biochemical, ADP-Glo); conditions: GST-HPK1 3.2 nM, 10 μM ATP, MBP substrate, ADP-Glo; read-out: HPK1 enzymatic IC50
Sequence of full-length human HPK1 (MAP4K1) (Q92918 whole entry): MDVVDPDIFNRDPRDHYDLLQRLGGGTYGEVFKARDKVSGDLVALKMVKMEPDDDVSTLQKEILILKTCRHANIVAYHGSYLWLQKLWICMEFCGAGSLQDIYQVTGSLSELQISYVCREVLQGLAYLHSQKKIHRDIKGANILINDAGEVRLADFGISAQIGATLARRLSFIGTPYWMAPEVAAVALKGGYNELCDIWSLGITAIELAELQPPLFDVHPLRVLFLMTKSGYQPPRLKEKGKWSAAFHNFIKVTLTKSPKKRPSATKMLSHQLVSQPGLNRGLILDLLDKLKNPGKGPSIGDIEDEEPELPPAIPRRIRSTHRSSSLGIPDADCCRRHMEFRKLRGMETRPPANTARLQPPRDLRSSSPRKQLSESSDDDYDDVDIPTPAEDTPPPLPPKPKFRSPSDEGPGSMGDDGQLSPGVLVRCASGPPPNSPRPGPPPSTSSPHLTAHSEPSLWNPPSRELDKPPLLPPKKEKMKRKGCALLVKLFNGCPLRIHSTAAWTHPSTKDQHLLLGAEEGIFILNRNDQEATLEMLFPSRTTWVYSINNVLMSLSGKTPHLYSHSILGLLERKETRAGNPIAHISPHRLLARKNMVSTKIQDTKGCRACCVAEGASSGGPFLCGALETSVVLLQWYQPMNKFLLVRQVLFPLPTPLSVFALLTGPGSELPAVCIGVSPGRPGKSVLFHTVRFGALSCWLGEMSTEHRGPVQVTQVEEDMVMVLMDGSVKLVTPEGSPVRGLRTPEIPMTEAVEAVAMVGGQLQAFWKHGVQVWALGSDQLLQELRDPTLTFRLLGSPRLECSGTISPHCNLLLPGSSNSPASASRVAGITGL
In short: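 GST-tagged full-length human HPK1 from Sf21 baculovirus cells (3.2 nM in enzyme mix; 50 mM HEPES pH 7.5, 10 mM MgCl2) was preincubated 15 min at RT with compound. Reaction was started with Start-Mix (10 μM ATP, 3.235 μM MBP) and run 120 min. ADP was read by ADP-Glo luminescence; IC50 came from 10-point % inhibition.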

N#Cc1ccccc1-c1cc(C(N)=O)c2ncnc(N[C@H]3CCCNC3)c2n1 [Example 86, 6-(2-cyanophenyl)-4-{[(3S)-piperidin-3-yl]amino}pyrido[3,2-d]pyrimidine-8-carboxamide]
pIC50 (HPK1 pSLP76 (Ser376)): 6.00 to 6.30 | pIC50 [1]: > 7.00

CC(C)(O)COc1ccc(-c2cc(C(N)=O)c3ncnc(N[C@H]4CCCNC4)c3n2)cc1 [Example 62, 6-[4-(2-hydroxy-2-methylpropoxy)phenyl]-4-[(3S)-piperidin-3-ylamino]pyrido[3,2-d]pyrimidine-8-carboxamide]
pIC50 (HPK1 pSLP76 (Ser376)): > 6.30 | pIC50 [1]: > 7.00

NC(=O)c1cc(-c2ccc(CN3C4COCC3COC4)cc2)nc2c(N[C@H]3CCCNC3)ncnc12 [Example 64, 6-(4-[3,7-dioxa-9-azabicyclo [3.3.1]nonan-9-ylmethyl]phenyl)-4-[(3S)-piperidin-3-ylamino]pyrido[3,2-d]pyrimidine-8-carboxamide]
pIC50 (HPK1 pSLP76 (Ser376)): > 6.30 | pIC50 [1]: > 7.00

CC1(F)CN(Cc2ccc(-c3cc(C(N)=O)c4ncnc(N[C@H]5CCCNC5)c4n3)cc2)C1 [Example 56, (S)-6-(4-((3-fluoro-3-methylazetidin-1-yl)methyl)phenyl)-4-(piperidin-3-ylamino)pyrido[3,2-d]pyrimidine-8-carboxamide]
pIC50 (HPK1 pSLP76 (Ser376)): > 6.30 | pIC50 [1]: > 7.00

NC(=O)c1cc(C2=CCC(N3CCOCC3)CC2)nc2c(N[C@H]3CCCNC3)ncnc12 (stereo partly drawn) [Example 17, 6-(4-morpholinocyclohex-1-en-1-yl)-4-(((S)-piperidin-3-yl)amino)pyrido[3,2-d]pyrimidine-8-carboxamide]
pIC50 (HPK1 pSLP76 (Ser376)): 6.00 to 6.30 | pIC50 [1]: > 7.00

NC(=O)c1cc(-c2ccc(N3CCC(O)C3)nc2)nc2c(N[C@@H]3CNC[C@@H](F)C3)ncnc12 (stereo partly drawn) [Example 32, 4-(((3S,5S)-5-fluoropiperidin-3-yl)amino)-6-(6-(3-hydroxypyrrolidin-1-yl)pyridin-3-yl)pyrido[3,2-d]pyrimidine-8-carboxamide]
pIC50 (HPK1 pSLP76 (Ser376)): < 6.00 | pIC50 [1]: > 7.00

COCCOc1ccc(-c2cc(C(N)=O)c3ncnc(N[C@H]4CCCNC4)c3n2)cc1 [Example 24, (S)-6-(4-(2-methoxyethoxy)phenyl)-4-(piperidin-3-ylamino) pyrido[3,2-d]pyrimidine-8-carboxamide]
pIC50 (HPK1 pSLP76 (Ser376)): > 6.30 | pIC50 [1]: > 7.00

C[C@@H]1CN(Cc2ccc(-c3cc(C(N)=O)c4ncnc(N[C@H]5CCCNC5)c4n3)cc2)C[C@@H](C)O1 [Example 68, 6-(4-[[(2R,6R)-2,6-dimethylmorpholin-4-yl]methyl]phenyl)-4-[(3S)-piperidin-3-ylamino]pyrido[3,2-d]pyrimidine-8-carboxamide]
pIC50 (HPK1 pSLP76 (Ser376)): 6.00 to 6.30 | pIC50 [1]: > 7.00

NC(=O)c1cc(-c2ccc(OC(F)(F)F)cc2)nc2c(N[C@H]3CCCNC3)ncnc12 [Example 31, 4-[(3S)-piperidin-3-ylamino]-6-[4-(trifluoromethoxy)phenyl]pyrido[3,2-d]pyrimidine-8-carboxamide]
pIC50 (HPK1 pSLP76 (Ser376)): 6.00 to 6.30 | pIC50 [1]: > 7.00

NC(=O)c1cc(C2=CCN(C(=O)C3CC3)CC2)nc2c(N[C@H]3CCCNC3)ncnc12 [Example 75, 6-(1-cyclopropanecarbonyl-1,2,3,6-tetrahydropyridin-4-yl)-4-{[(3S)-piperidin-3-yl]amino}pyrido[3,2-d]pyrimidine-8-carboxamide]
pIC50 (HPK1 pSLP76 (Ser376)): 6.00 to 6.30 | pIC50 [1]: > 7.00

NC(=O)c1cc(-c2ccc(OCC3(O)CCCC3)cc2)nc2c(N[C@@H]3CNC[C@@H](F)C3)ncnc12 [Example 35, 4-(((3S,5S)-5-fluoropiperidin-3-yl)amino)-6-(4-((1-hydroxycyclopentyl)methoxy)phenyl)pyrido[3,2-d]pyrimidine-8-carboxamide]
pIC50 (HPK1 pSLP76 (Ser376)): 6.00 to 6.30 | pIC50 [1]: > 7.00
